According to patent US6136813A, “Pharmaceutical treatment” (Beecham plc, priority 1989, dated 2000):
Like-named read-outs stand apart in the source and are kept apart here. Values belong to the compound of their own block, whether it stands above or below them.

Experiment: Blood levels of penciclovir in Pekin ducks after oral dosing with penciclovir or famciclovir
Type: in vivo
Conditions: duck; for AUC at 6 h: 0-6 hr; for concentration at 0.25 h: 15 min; for concentration at 32 min / concentration at 0.5 h: 30 min; for concentration at 32 min: sample collected at 32 min; for concentration at 1 h / concentration at 65 min: 60 min; for concentration at 2 h: 120 min; for concentration at 4 h: 240 min; for concentration at 6 h: 360 min; for concentration at 65 min: sample collected at 65 min
[1] = 5 mg/kg, oral famciclovir 5 mg/kg, Duck No. 117
[2] = 5 mg/kg, oral famciclovir 5 mg/kg, Duck No. 154
[3] = 25 mg/kg, oral famciclovir 25 mg/kg, Duck No. 111
[4] = 25 mg/kg, oral famciclovir 25 mg/kg, Duck No. 153
[5] = 20 mg/kg, oral penciclovir 20 mg/kg, Duck No. 139
[6] = 20 mg/kg, oral penciclovir 20 mg/kg, Duck No. 169
[7] = 100 mg/kg, oral penciclovir 100 mg/kg, Duck No. 142
[8] = 100 mg/kg, oral penciclovir 100 mg/kg, Duck No. 163

SMILES: CC(=O)OCC(CCn1cnc2cnc(N)nc21)COC(C)=O [famciclovir, 9-(4-acetoxy-3-acetoxymethylbut-1-yl)-2-aminopurine]
AUC at 6 h (5 mg/kg, oral famciclovir 5 mg/kg, Duck No. 117, read-out: AUC (area under the 0-6 hr. concentration/time curve) of penciclovir in blood): 15 µM·h
AUC at 6 h (5 mg/kg, oral famciclovir 5 mg/kg, Duck No. 154, read-out: AUC (area under the 0-6 hr. concentration/time curve) of penciclovir in blood): 12 µM·h
concentration at 0.25 h [1]: 8.7 µM
concentration at 0.25 h [2]: 5.1 µM
concentration at 32 min [1]: 8.4 µM
concentration at 32 min [2]: 3.9 µM
concentration at 1 h [1]: 7.5 µM
concentration at 1 h [2]: 3.5 µM
concentration at 2 h [1]: 2 µM
concentration at 2 h [2]: 2 µM
concentration at 4 h [1]: ~0.5 µM
concentration at 4 h [2]: 1.4 µM
concentration at 6 h [2]: 1 µM
AUC at 6 h (25 mg/kg, oral famciclovir 25 mg/kg, Duck No. 111, read-out: AUC (area under the 0-6 hr. concentration/time curve) of penciclovir in blood): 126 µM·h
AUC at 6 h (25 mg/kg, oral famciclovir 25 mg/kg, Duck No. 153, read-out: AUC (area under the 0-6 hr. concentration/time curve) of penciclovir in blood): 90 µM·h
concentration at 0.25 h [3]: 22 µM
concentration at 0.25 h [4]: 18 µM
concentration at 0.5 h [3]: 31 µM
concentration at 32 min [4]: 20 µM
concentration at 1 h [3]: 34 µM
concentration at 1 h [4]: 25 µM
concentration at 2 h [3]: 33 µM
concentration at 2 h [4]: 20 µM
concentration at 4 h [3]: 14 µM
concentration at 4 h [4]: 4.4 µM
concentration at 6 h [3]: 6.1 µM
concentration at 6 h [4]: ~0.5 µM

AUC at 6 h (20 mg/kg, oral penciclovir 20 mg/kg, Duck No. 139, read-out: AUC (area under the 0-6 hr. concentration/time curve) of penciclovir in blood): 55 µM·h
AUC at 6 h (20 mg/kg, oral penciclovir 20 mg/kg, Duck No. 169, read-out: AUC (area under the 0-6 hr. concentration/time curve) of penciclovir in blood): 57 µM·h
concentration at 0.25 h [5]: 24 µM
concentration at 0.25 h [6]: 41 µM
concentration at 0.5 h [5]: 28 µM
concentration at 0.5 h [6]: 30 µM
concentration at 65 min [5]: 18 µM
concentration at 65 min [6]: 19 µM
concentration at 2 h [5]: 12 µM
concentration at 2 h [6]: 10 µM
concentration at 4 h [5]: 2.8 µM
concentration at 4 h [6]: 2.6 µM
concentration at 6 h [5]: ~0.5 µM
AUC at 6 h (100 mg/kg, oral penciclovir 100 mg/kg, Duck No. 142, read-out: AUC (area under the 0-6 hr. concentration/time curve) of penciclovir in blood): 92 µM·h
AUC at 6 h (100 mg/kg, oral penciclovir 100 mg/kg, Duck No. 163, read-out: AUC (area under the 0-6 hr. concentration/time curve) of penciclovir in blood): 95 µM·h
concentration at 0.25 h [7]: 43 µM
concentration at 0.25 h [8]: 42 µM
concentration at 0.5 h [7]: 44 µM
concentration at 0.5 h [8]: 38 µM
concentration at 1 h [7]: 40 µM
concentration at 65 min [8]: 44 µM
concentration at 2 h [7]: 18 µM
concentration at 2 h [8]: 21 µM
concentration at 4 h [7]: 3.6 µM
concentration at 4 h [8]: 2.7 µM
concentration at 6 h [7]: 1.1 µM
concentration at 6 h [8]: ~0.5 µM
SMILES: Nc1nc2c(ncn2CCC(CO)CO)c(=O)[nH]1 [penciclovir]
